≈ marks a conversion by molar mass, not a printed value. Each block holds one compound with its values, some of them ahead of it.
Tests used:
Assay in all cases: ≥ marks a high value that may be exact or a test limit, other limits are often not marked, values filed in µg/mL are converted to µM
Escherichia coli BL2 = tested on: Escherichia coli BL2
[1] = tested on: Enterococcus faecium ATCC 19434
[2] = tested on: Micrococcus luteus ATCC 7468
[3] = tested on: Staphylococcus aureus ATCC 502A
[4] = tested on: Acinetobacter baumannii ATCC 15308
[5] = tested on: Pseudomonas sp. ATCC 15915
[6] = tested on: Staphylococcus aureus DBFIQ S21
[7] = tested on: Listeria monocytogenes DBFIQ LM3
[8] = tested on: Staphylococcus aureus ATCC 6538
[9] = tested on: Salmonella enterica subsp. enterica serovar Typhimurium ATCC 14028
[10] = tested on: Klebsiella pneumoniae ATCC 10031
[11] = tested on: Escherichia coli ATCC 11219
[12] = tested on: Pseudomonas aeruginosa ATCC 13388
[13] = tested on: Candida albicans ATCC 90028
[14] = tested on: Staphylococcus aureus USA 300
[15] = tested on: Staphylococcus aureus NBRC 100910
[16] = tested on: Pseudomonas aeruginosa ATCC 9027
Escherichia coli SPE 001 = tested on: Escherichia coli SPE 001
[17] = tested on: Staphylococcus aureus SPM 101
[18] = tested on: Staphylococcus aureus USA 100
[19] = tested on: Escherichia coli ATCC 27325
[20] = tested on: Pseudomonas putida ATCC 17426
[21] = tested on: Bacillus subtilis ATCC 62037
[22] = tested on: Streptococcus mutans ATCC 25175
[23] = tested on: Staphylococcus aureus ATCC 15752
[24] = tested on: Candida albicans ATCC 10231
[25] = tested on: Salmonella enterica subsp. enterica serovar Enteritidis ATCC 13076
[26] = tested on: Saccharomyces cerevisiae ATCC 44774
[27] = tested on: Pseudomonas syringae pv. tomato DC3000
[28] = tested on: Pseudomonas corrugata DSM 7228
[29] = tested on: Clavibacter michiganensis subsp. michiganensis DSM 46294
[30] = tested on: Xanthomonas vesicatoria DSM 50861
[31] = tested on: Pectobacterium carotovorum subsp. carotovorum DSM 30168
[32] = tested on: Pseudomonas syringae pv. syringae DSM 10604
[33] = tested on: Staphylococcus aureus 90857
Alternaria alternata = tested on: Alternaria alternata
Botrytis cinerea = tested on: Botrytis cinerea
Cladosporium herbarum = tested on: Cladosporium herbarum

Structure (SMILES): CC[C@H](C)[C@H](NC(=O)CN)C(=O)N[C@@H](CCCN=C(N)N)C(=O)N[C@@H](CCCN=C(N)N)C(=O)N[C@H](C(=O)N[C@@H](CC(C)C)C(=O)N[C@@H](CCCN=C(N)N)C(=O)N[C@@H](Cc1ccc(O)cc1)C(=O)NCC(=O)N[C@@H](CCCN=C(N)N)C(=O)N[C@@H](CCCN=C(N)N)C(=O)N[C@@H](CO)C(N)=O)[C@@H](C)CC [GIRRILRYGRRS]
- MIC [8]: 10 µM (≈ 15 µg/mL)
- MIC [9]: 10 µM (≈ 15 µg/mL)
- MIC [10]: 5 µM (≈ 7.51 µg/mL)
- MIC [11]: 3 µM (≈ 4.51 µg/mL)
- MIC [12]: 20 µM (≈ 30 µg/mL)

Structure (SMILES): CC(C)C[C@H](NC(=O)[C@H](CCCCN)NC(=O)[C@H](CC(C)C)NC(=O)[C@H](CC(C)C)NC(=O)[C@H](CC(C)C)NC(=O)[C@H](CCCCN)NC(=O)[C@H](CC(C)C)NC(=O)[C@@H](N)CCCCN)C(=O)N[C@@H](CCCCN)C(N)=O [KLKLLLKLK]
- MIC [13]: ≥ 100 µM
- MIC [14]: ≥ 50 µM
- MIC [15]: ≥ 117 µM
- MIC [16]: 12.5 µM (≈ 13.7 µg/mL)
- MIC (Escherichia coli SPE 001): 7.3 µM (≈ 7.99 µg/mL)
- MIC [17]: 1.82 µM (≈ 2 µg/mL)
- MIC [18]: ≥ 50 µM

Structure (SMILES): CC[C@H](C)[C@H](NC(=O)[C@@H](NC(=O)[C@H](CCCCN)NC(=O)[C@H](CCCCN)NC(=O)[C@@H](NC(=O)[C@@H](NC(=O)[C@H](CCCCN)NC(=O)[C@@H](NC(=O)[C@H](CCCCN)NC(=O)[C@H](CCCCN)NC(=O)[C@H](CCCCN)NC(=O)[C@@H](N)CCCN=C(N)N)[C@@H](C)CC)[C@@H](C)CC)[C@@H](C)CC)[C@@H](C)CC)C(N)=O [RKKKIKIIKKII]
- MIC [27]: 3.31 µM (≈ 5 µg/mL)
- MIC [28]: 3.31 µM (≈ 5 µg/mL)
- MIC [29]: 1.66 µM (≈ 2.5 µg/mL)
- MIC [30]: 1.66 µM (≈ 2.5 µg/mL)
- MIC [31]: 6.63 µM (≈ 9.99 µg/mL)
- MIC [32]: 0.331 µM (≈ 0.5 µg/mL)
- MIC [33]: ≥ 62.5 µM

Structure (SMILES): CC(C)C[C@H](NC(=O)[C@H](C)NC(=O)CNC(=O)[C@H](CCCN=C(N)N)NC(=O)[C@H](Cc1ccccc1)NC(=O)[C@H](C)NC(=O)[C@H](CCCN=C(N)N)NC(=O)[C@H](Cc1ccccc1)NC(=O)[C@H](C)NC(=O)[C@H](C)NC(=O)[C@H](CC(C)C)NC(=O)[C@H](CCCN=C(N)N)NC(=O)[C@H](CCCN=C(N)N)NC(=O)[C@@H](N)CCCCN)C(=O)N[C@@H](CCCCN)C(=O)N[C@@H](CO)C(=O)N[C@H](C(=O)N[C@@H](CC(C)C)C(=O)N[C@@H](CCCCN)C(=O)N[C@@H](CCCCN)C(N)=O)C(C)C [KRRLAAFRAFRGALKSVLKK]
- MIC [27]: 2.16 µM (≈ 5 µg/mL)
- MIC [28]: 1.08 µM (≈ 2.5 µg/mL)
- MIC [29]: 2.16 µM (≈ 5 µg/mL)
- MIC (Alternaria alternata): ≥ 43.2 µM
- MIC [30]: 2.16 µM (≈ 5 µg/mL)
- MIC [31]: 17.3 µM (≈ 40 µg/mL)
- MIC (Botrytis cinerea): ≥ 43.2 µM
- MIC [32]: 2.16 µM (≈ 5 µg/mL)
- MIC (Cladosporium herbarum): 8.63 µM (≈ 20 µg/mL)

Next, values leading:

- MIC (Escherichia coli BL2): 7 µM (≈ 19.3 µg/mL)
- MIC [1]: 7 µM (≈ 19.3 µg/mL)
- MIC [2]: 7 µM (≈ 19.3 µg/mL)
- MIC [3]: 1.5 µM (≈ 4.13 µg/mL)
- MIC [4]: 1.1 µM (≈ 3.03 µg/mL)
- MIC [5]: 7 µM (≈ 19.3 µg/mL)
Structure (SMILES): CC[C@H](C)[C@H](NC(=O)[C@H](C)NC(=O)[C@H](CCCN=C(N)N)NC(=O)[C@H](CCSC)NC(=O)[C@H](C)NC(=O)[C@@H](NC(=O)[C@@H](N)[C@@H](C)O)[C@@H](C)CC)C(=O)N[C@@H](CC(N)=O)C(=O)N[C@@H](CC(N)=O)C(=O)N[C@@H](Cc1ccc(O)cc1)C(=O)N[C@@H](CCCN=C(N)N)C(=O)N[C@@H](Cc1c[nH]c2ccccc12)C(=O)N[C@@H](CCCN=C(N)N)C(=O)N[C@@H](CO)C(=O)N[C@@H](CCCCN)C(=O)N[C@@H](CC(N)=O)C(=O)N[C@@H](CCC(N)=O)C(=O)N[C@@H](CC(N)=O)C(=O)N[C@H](C(=O)N[C@@H](Cc1ccccc1)C(=O)N[C@@H](CC(C)C)C(=O)N[C@@H](CCCN=C(N)N)C(=O)O)[C@@H](C)O [TIAMRAINNYRWRSKNQNTFLR]

- MIC [6]: 6.6 µM (≈ 16 µg/mL)
- MIC [7]: 1.7 µM (≈ 4.12 µg/mL)
Structure (SMILES): CC[C@H](C)[C@H](NC(=O)[C@H](C)NC(=O)[C@@H](NC(=O)[C@H](C)NC(=O)CNC(=O)[C@H](CCSC)NC(=O)[C@H](CCC(N)=O)NC(=O)[C@H](CC(C)C)NC(=O)[C@H](CO)NC(=O)[C@@H](N)Cc1ccc(O)cc1)[C@@H](C)O)C(=O)N[C@@H](CCCCN)C(=O)N[C@@H](CCC(N)=O)C(=O)N[C@H](C(=O)N[C@@H](CCCCN)C(=O)N[C@@H](CCCCN)C(=O)N[C@@H](CC(C)C)C(=O)N[C@@H](Cc1ccccc1)C(=O)N[C@@H](CCCCN)C(=O)N[C@@H](CCCCN)C(=O)N[C@@H](CCCCN)C(=O)NCC(=O)NCC(N)=O)C(C)C [YSLQMGATAIKQVKKLFKKKGG]

- MIC [19]: 0.726 µM (≈ 2 µg/mL)
- MIC [20]: 1.45 µM (≈ 4 µg/mL)
- MIC [21]: 0.726 µM (≈ 2 µg/mL)
- MIC [22]: 0.726 µM (≈ 2 µg/mL)
- MIC [23]: 0.726 µM (≈ 2 µg/mL)
- MIC [24]: 0.726 µM (≈ 2 µg/mL)
- MIC [25]: 1.45 µM (≈ 4 µg/mL)
- MIC [26]: 0.726 µM (≈ 2 µg/mL)
Structure (SMILES): CC[C@H](C)[C@H](NC(=O)[C@@H]1CCCN1C(=O)[C@H](Cc1c[nH]c2ccccc12)NC(=O)[C@H](CCC(N)=O)NC(=O)[C@H](CCCN=C(N)N)NC(=O)[C@@H](NC(=O)[C@@H](NC(=O)[C@@H](N)CCCN=C(N)N)C(C)C)C(C)C)C(=O)NCC(=O)N[C@@H](CCCN=C(N)N)C(=O)N[C@H](C(=O)N[C@H](C(=O)N[C@@H](CCCN=C(N)N)C(=O)N[C@@H](CCCN=C(N)N)C(=O)N[C@H](C(=O)N[C@H](C(=O)N[C@@H](CCCN=C(N)N)C(=O)N[C@@H](CCCN=C(N)N)C(=O)N[C@H](C(=O)N[C@H](C(=O)N[C@@H](CCCN=C(N)N)C(=O)N[C@@H](CC(C)C)C(=O)O)C(C)C)C(C)C)C(C)C)C(C)C)C(C)C)C(C)C [RVVRQWPIGRVVRRVVRRVVRL]
